Common to all, as to assay type: cell-based, human
In one series the test system is NCI-H460 cells. Nature of the series: Quantification of cell-associated compound by HPLC, NCI-H460. The following applies: 30 μM, 10 minutes, mean ± SEM. As to the method:
(§1) Accumulation of bendamustine and selected bendamustine esters by HT-29 and NCI-H460 cells was determined by HPLC. For this purpose, 1.5 · 10^6 cells/well were seeded into 6-well plates (Sarstedt, Nümbrecht, Germany). After two days of cultivation, the cells were incubated in PBS containing 30 μM of 1, 2, 4 or 5 and 200 μM of umbelliferone as internal standard at 37°C for 10 minutes. After removing the medium, the cells were washed three times with PBS. Untreated cells were detached with trypsin/EDTA and counted. The treated cells were harvested by adding 200 μL of ice-cold perchloric acid (1 M) and scraping. Subsequently, the samples were vortexed and sonicated (Branson 3200 ultrasonic cleaner; Branson, Danbury, USA) for 10 minutes. After 5 minutes of centrifugation (13000 g, 4°C), the supernatants were filtered (0.2 μm Phenex; Phenomenex, Aschaffenburg, Germany) and directly analyzed by HPLC with fluorescence detection according to a recently reported validated procedure. The normalization of the measured concentration to the cell count allowed for a calculation of the cell-associated amount of the respective test compound. Additionally, the ratio of cell-associated substance compared to the applied concentration (30 μM) was calculated based on an average cell volume of 3 pL.

Series [1] has as its system LNCaP cells (prostate cancer). The experiment in a line: Chemosensitivity assay (MTT-assay), LNCaP. The settings on record: 96 hours of incubation, mean ± SEM. The procedure:
(§2) Depending on the characteristics of the cells, two different assays were performed. For adherently growing cells (HaCaT, HT-29, NCI-H460, SK-MEL-3, MG-63, Capan-1), cytotoxic and cytocidal effects were determined in the crystal violet assay, whereas for loosely adherent cells (LNCaP, SK-ES-1) and cells growing in suspension (HEL 92.1.7, Jurkat, U-937) the MTT-assay was used with minor modifications. In brief, 1.5 · 10^3 (HaCaT, HT-29, NCI-H460, SK-MEL-3, MG-63, Capan-1) or 5 · 10^3 (Jurkat, U-937, HEL92.1.7, LNCaP, SK-ES-1) cells per well were seeded into flat-bottom 96-well plates (Sarstedt, Nümbrecht, Germany). All compounds were used as solutions prepared in DMSO and tested at final concentrations (8 replicates per concentration) of 1, 3, 10, 30 and 50 μM. In case of the vehicle control and test compounds, the final DMSO concentration amounted to 0.1%. Absorbance was measured at 580 nm in a 96-well plate reader (GENios pro microplate reader, Tecan, Salzburg, Austria). Effects were quantified as previously described for both assays.
In general terms: Tetrazolium dyes change colour on reduction, which living cells bring about.

Another series has as its system Jurkat cells. The experiment in a line: Detection of apoptosis (annexin V/propidium iodide assay). The procedure:
Apoptosis was determined by incubating proliferating Jurkat cells with medium containing 1, 2, 4 or 5 at a concentration of 10 μM or 0.1% of DMSO (untreated control). After different periods of incubation (6, 24, 48 hours), samples were analyzed using the Annexin V-FITC apoptosis detection kit l (BD Biosciences, Heidelberg, Germany) according to the manufacturer’s protocol using 10^6 cells/mL. Cells were analyzed using a FACSCalibur flow cytometer (BD Biosciences, Heidelberg, Germany). The compensation was performed for each experiment with annexin V-FITC (530/30 BP filter) and propidium iodide (585/42 BP filter), respectively. At least 1 · 10^4 events were registered per sample and debris as well as cell aggregates were excluded by forward (FSC) versus side scatter (SSC) gates. Raw data were analyzed using FlowJo V10 software (Treestar Inc., Ashland, OR, USA).

Series [2] relates to SK-MEL-3 cells (malignant melanoma). The experiment in a line: Chemosensitivity assay (crystal violet assay), SK-MEL-3. The settings on record: mean ± SEM. As to the method: as §2
The next series has as its system HT-29 cells. The experiment in a line: Quantification of cell-associated compound by HPLC, HT-29. The following applies: 30 μM, 10 minutes; for amount of cell-associated compound: mean ± SEM. The procedure: as §1
For series [3], the system named is MG-63 cells (osteosarcoma). Nature of the series: Chemosensitivity assay (crystal violet assay), MG-63. The settings on record: for IC50: 96 hours of incubation, crystal violet assay, mean ± SEM. The procedure:
as §2

Series [4] has as its system U-937 cells (histiocytic lymphoma). The experiment in a line: Chemosensitivity assay (MTT-assay), U-937. The following applies: 96 hours of incubation, mean ± SEM. The procedure:
as §2

A further series has as its system p53 in NCI-H460 cells. Nature of the series: p53 expression by immunoblotting, NCI-H460. The following applies: NCI-H460 nuclear extracts, 24 hours. As to the method: The expression of the tumor suppressor p53 by NCI-H460 and HT-29 cells was determined after incubating the cells with compounds 1, 2, 4 and 5 at different concentrations for 24 hours. The cells (from a 10-cm culture dish, 70% confluency) were washed twice with PBS and harvested by scraping after addition of ice-cold buffer A (10 mM HEPES pH = 7.9, 10 mM KCl, 0.1 mM EDTA, 0.1 mM EGTA, protease inhibitor mix (Sigma-Aldrich)). After adding Nonidet P-40 (NP-40) (Sigma, Taufkirchen, Germany) to a final concentration of 1%, the cell suspensions were vortexed and subsequently centrifuged at 13000 g and 4°C for 30 seconds. The pellets were re-suspended in buffer B (buffer A + 400 mM NaCl, 1% NP-40) and gently agitated using a Sarmix M2000 (Sarstedt, Nümbrecht, Germany) at 4°C for 15 min, followed by centrifugation (13000 g, 4°C, 5 min; Microfuge; Eppendorf, Hamburg, Germany). The concentration of soluble protein was determined according to Bradford using the Bio-Rad Protein Assay (Bio-Rad Laboratories, Munich, Germany).
An amount of 30 μg total protein of each sample and 8 μL of a biotinylated molecular weight standard (1:6 dilution) (Cell Signaling, Danvers, MA, USA) was separated by SDS-PAGE (12% gel) and afterwards electroblotted (150 V, 30 min) to nitrocellulose membrane (Peqlab, Erlangen, Germany). To prevent unspecific binding, the membranes were treated with milk powder (5% (m/v) in buffer (150 mM NaCl, 20 mM Tris, 0.1% Tween 20, pH = 7.6)) before incubation with anti-p53 rabbit mAb (dilution 1:1000) (Cell Signaling) and anti-histone H2B Ab (dilution 1:1000) (Cell Signaling) as loading control at 4°C for 14 hours. The primary antibodies and the “protein ladder” were simultaneously detected with a horseradish peroxidase (HRP)-coupled donkey anti rabbit mAb (dilution 1:1000) (Santa Cruz biotechnology, Heidelberg, Germany) or the anti-biotin HRP-coupled antibody (dilution 1:5000) (Cell Signaling), respectively. The incubation with the secondary antibody was performed at room temperature for 1 hour. The bands were detected by […] using the Pierce ECL Western Blotting Substrate (Thermo Scientific, Dreieich, Germany). After exposure, the x-ray film (Amersham Hyperfilm ECL, GE Healthcare, München, Germany) was developed (CAWOMAT 2000 IR, CAWO, Schrobenhausen, Germany) and analyzed using a GS-710 imaging densitometer and Quantity One V. 4 software (Bio-Rad Laboratories, Munich, Germany).

The test system of series [5] is NCI-H460 cells (large cell lung cancer). Nature of the series: Chemosensitivity assay (crystal violet assay), NCI-H460. The following applies: 96 hours of incubation, mean ± SEM. The procedure: as §2
Setting [6] is: Homo sapiens, SK-MEL3, 96 hours of incubation, read-out: IC50.

Like-named read-outs stand apart in the source and are kept apart here.

In the case of `Cn1c(CCCC(=O)O)nc2cc(N(CCCl)CCCl)ccc21` [Compound 1, bendamustine, reference compound], the “amount of cell-associated compound” value in the series with NCI-H460 cells is listed as 0.03 ± 0.001 nmol/10^6 cells; with HT-29 cells, 0.07 ± 0.011 nmol/10^6 cells. Also, the IC50 (commonly the concentration needed to halve the response being measured) in [1] is “only very weakly active”; in [1] (Homo sapiens, read-out: IC50), 77.9 ± 5.6 µM; in series [2] (96 hours of incubation), “ineffective”; in series [2] (setting [6]) it was more than 100 µM; in series [3], 55.8 ± 1.9 µM; in [3] (Homo sapiens, MG-63, 96 h), approximately 56 µM. The IC50 in series [4] is 83.4 ± 8.5 µM; in [4] (Homo sapiens, U-937, 96 h), more than 80 µM; in series [5], “only very weakly active”; in series [5] (Homo sapiens, read-out: IC50), 90 ± 4.3 µM. Also, the “effect on apoptosis compared to the control cells” value in the series on Jurkat cells (10 μM, regardless of the period of incubation (6, 24, 48 hours)) is “no effect”. Further, in series [3] (kinetic assay, long-term exposure (S6 Fig)), the “concentrations with cytocidal drug effects” value is listed as “above 30 μM”. Moreover, in the series with p53 in NCI-H460 cells (100 μM), the p53 expression entry is “weakly induced”.
As for `COC(=O)CCCc1nc2cc(N(CCCl)CCCl)ccc2n1C` [Compound 2], the “amount of cell-associated compound” value in the series on NCI-H460 cells was determined as 0.28 ± 0.06 nmol/10^6 cells; in the series on HT-29 cells it was 2.05 ± 0.39 nmol/10^6 cells. Further, the half-inhibitory concentration (IC50) in [1] (Homo sapiens, read-out: IC50) came to 0.95 ± 0.15 µM; in [2] (setting [6]), 13.8 ± 0.4 µM; in series [3] (Homo sapiens, MG-63, 96 h) it was 1.9 ± 0.1 µM; in series [4] (Homo sapiens, U-937, 96 h), 1.8 ± 0.1 µM; in series [5] (Homo sapiens, read-out: IC50), 4.8 ± 0.3 µM. Also, the “fraction of early apoptotic cells” value in the series on Jurkat cells (10 μM, 24 hours) was “approximately 10%”; with Jurkat cells (10 μM, 48 hours) it was 15%. The “fraction of secondary necrotic cells” value with Jurkat cells (10 μM, 48 hours) was 20–25%. Further, the p53 expression result with p53 in NCI-H460 cells (10 μM) is recorded as “significantly induced”.
For `Cn1c(CCCC(=O)OCCN2CCOCC2)nc2cc(N(CCCl)CCCl)ccc21` [Compound 4], the “amount of cell-associated compound” value with NCI-H460 cells was 0.59 ± 0.04 nmol/10^6 cells; in the series with HT-29 cells it was 1.59 ± 0.23 nmol/10^6 cells. In addition, the IC50 in series [1] (Homo sapiens, read-out: IC50) came out at 2.2 ± 0.1 µM; in [2] (setting [6]), 20.9 ± 0.9 µM; in series [3] (Homo sapiens, MG-63, 96 h), 3.5 ± 0.1 µM; in series [4] (Homo sapiens, U-937, 96 h), 3.2 ± 0.96 µM; in series [5] (Homo sapiens, read-out: IC50), 9.7 ± 1.3 µM. Further, the “fraction of early apoptotic cells” value in the series on Jurkat cells (10 μM, 24 hours) is “approximately 10%”; with Jurkat cells (10 μM, 48 hours) it was 15%. The “fraction of secondary necrotic cells” value with Jurkat cells (10 μM, 48 hours) is 20–25%. Further, the p53 expression result in the series with p53 in NCI-H460 cells (10 μM) is given as “significantly induced”.
As for `Cn1c(CCCC(=O)OCCN2CCCC2)nc2cc(N(CCCl)CCCl)ccc21` [Compound 5], the “amount of cell-associated compound” value in the series with NCI-H460 cells stood at 1.89 ± 0.14 nmol/10^6 cells; in the series with HT-29 cells, 5.01 ± 0.34 nmol/10^6 cells. Moreover, the half-inhibitory concentration (IC50) came out at 0.5 ± 0.08 µM in [1] (Homo sapiens, read-out: IC50); 0.83 ± 0.18 µM in series [2] (setting [6]); 0.38 ± 0.06 µM in [3] (Homo sapiens, MG-63, 96 h); 0.83 ± 0.19 µM in series [4] (Homo sapiens, U-937, 96 h); 0.9 ± 0.01 µM in series [5] (Homo sapiens, read-out: IC50). The “fraction of early apoptotic cells” value is recorded as ~ 2.5% with Jurkat cells (10 μM, 6 hours) and 20% with Jurkat cells (10 μM, 24 hours). In the series on Jurkat cells (10 μM, 24 hours), the “cells either early apoptotic or secondary necrotic” value is “Approximately 50%”. Moreover, the “fraction of secondary necrotic cells” value worked out at 30% in the series with Jurkat cells (10 μM, 24 hours) and 70% with Jurkat cells (10 μM, 48 hours). For the same molecule, the viability at 10 µM in the series on Jurkat cells (Homo sapiens, Jurkat, 48 h, two days after treatment, read-out: viable cells) was approximately 15%. Moreover, the “cellular enrichment relative to bendamustine” value with HT-29 cells is given as “approximately 70 fold”. The p53 expression result in the series with p53 in NCI-H460 cells (10 μM) is given as “significantly induced”.

The values are drawn from paper PMC4721923 (PLoS ONE, 2015).
